Source: PubChem BioAssay (NCI)
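Compound exposure: 48 hours, 5 concentrations, 96-well plates. TGI: total growth inhibition.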

Tests used:
Experiment in all cases: NCI-60 cell line screen, 48 h
MDA-MB-435 = tested on: MDA-MB-435
SF-268 CNS = tested on: SF-268 CNS
BT-549 breast = tested on: BT-549 breast
A549 NSCLC = tested on: A549 NSCLC
NCI/ADR-RES ovarian = tested on: NCI/ADR-RES ovarian
HT29 colon = tested on: HT29 colon
HOP-62 NSCLC = tested on: HOP-62 NSCLC
HL-60(TB) leukemia = tested on: HL-60(TB) leukemia
SK-MEL-28 melanoma = tested on: SK-MEL-28 melanoma
RPMI-8226 leukemia = tested on: RPMI-8226 leukemia

Row | Compound | TGI (MDA-MB-435) [µM] | TGI (SF-268 CNS) [µM] | TGI (BT-549 breast) [µM] | TGI (A549 NSCLC) [µM] | TGI (NCI/ADR-RES ovarian) [µM] | TGI (HT29 colon) [µM] | TGI (HOP-62 NSCLC) [µM] | TGI (HL-60(TB) leukemia) [µM] | TGI (SK-MEL-28 melanoma) [µM] | TGI (RPMI-8226 leukemia) [µM]
1 | O=C1Cc2c(-c3ccccc3)cc(-c3ccc(Cl)cc3)nc2-c2ccccc2N1 | > 45.7 | 20 | 40.2 | 35.3 | 14.8 | > 46.8 | 12.9 | > 100 | > 31.8 | > 100
2 | CC(=O)OC/C=C/Cn1nc(Br)c(=O)[nH]c1=O | > 100 | > 100 | > 100 | > 100 | > 100 | > 100 | > 100 | > 100 | > 100 | > 100
3 | N#Cc1c2c(c(Nc3ccc(Cl)cc3)n3c1nc1ccccc13)CCCC2 | > 100 | > 100 | > 100 | > 100 | > 100 | > 100 | > 100 | > 100 | > 100 | 36.1
4 | CN1Cc2c(ccc3c2OCO3)[C@@H]2[C@H](O)Cc3cc4c(cc3[C@@H]21)OCO4 | 2.53 | > 26.5 | > 100 | > 100 | > 100 | 5.12 | 28.1 | 4.36 | > 100 | > 37.4
5 | CC(C)(C)OC(=O)NCCCCC1NC(=O)[C@@H]2Cc3c([nH]c4ccccc34)C(c3ccccc3)N2C1=O (stereo not given in full) | > 100 | > 100 | 68.4 | > 100 | > 100 | 87.5 | > 100 | 52.3 | > 100 | > 100
6 | CCc1nc2cc(F)ccc2[nH]c1=O | > 100 | > 100 | > 100 | > 100 | > 100 | > 100 | > 100 | > 100 | > 100 | > 100
7 | COc1cc(COC(=O)NC(Cc2cccs2)C(=O)O)c([N+](=O)[O-])cc1OC (stereo not given) | > 100 | > 100 | > 100 | > 100 | > 100 | > 100 | > 100 | > 100 | > 100 | > 100
8 | COc1cc(CC2C(=O)OCC2Cc2ccc(OC)c(OC)c2)ccc1O (stereo not given) | > 100 | > 100 | > 100 | > 100 | > 100 | > 100 | > 100 | > 100 | > 100 | > 100
9 | O=C(CCc1ccccc1)NCCc1ccc(O)c(O)c1 | 29.4 | > 100 | > 49.8 | > 100 | > 100 | > 69.3 | 97.3 | 14.3 | > 100 | 59.4
10 | CN(C)c1ccc(/C=C2\CCCCCC2=O)cc1 | > 100 | > 100 | > 100 | > 100 | > 100 | > 100 | > 100 | > 100 | > 100 | > 100
11 | CCOC(=O)c1ccc(-c2cccs2)[nH]1 | > 100 | > 100 | > 100 | > 100 | > 100 | > 100 | > 100 | > 100 | > 100 | > 100
12 | CC(=O)Oc1cc(OC(C)=O)c2c(c1C)CC[C@@H]1[C@@H]2CC[C@]2(C)[C@@H](OC(C)=O)CC[C@@H]12 | 31.3 | 39.3 | 34.1 | 34.7 | 57.6 | 29.8 | 36 | 54.6 | 33 | 31.3
13 | CCOC(=O)C(NC(=O)c1cccc(Cl)c1)(N1CCN(c2cc3c(cc2F)c(=O)c(C(=O)O)cn3CC)CC1)C(F)(F)F (stereo not given) | 28 | 35.3 | 43.7 | 64.2 | > 100 | 42.5 | 36.6 | 20.1 | 33.9 | 62.8
14 | O=C1c2sccc2C(=O)c2c(CO)csc21 | 4.62 | 30.7 | 12 | 6.7 | 19.1 | 9.55 | 25.5 | 6.08 | 38.3 | > 100
15 | Clc1cc2ncn(C3CCCO3)c2cc1Cl (stereo not given) | > 100 | > 100 | 86.4 | > 100 | > 100 | > 100 | > 100 | > 100 | > 100 | > 100
16 | COc1c(-c2nc3nc(N4CCN(C)CC4)ccc3[nH]2)cc(OC)c2c1nc(CCl)n2C | 38.2 | 55.7 | 40.4 | 79.6 | > 100 | 32.9 | 49.1 | 53.5 | 71.7 | 43.1
17 | COc1ccc2c(C=O)c3n(c(=O)c2c1OC)CCc1cc2c(cc1-3)OCO2 | > 100 | > 100 | > 100 | > 100 | > 100 | > 100 | > 100 | > 100 | > 100 | 30.5
